Source: ChEMBL document CHEMBL1157921, “Selective targeting of 2'-deoxy-5-fluorouridine to urokinase positive malignant cells in vitro” (Bioorg Med Chem Lett, 2010)
Calls of active or inactive are those of the source. The rule behind the calls is not given here.

How the values were obtained:
Assay type in all cases: functional, cell-based
MCF7 [1] = assay: Cytotoxicity against human MCF7 cells overexpressing urokinase plasminogen activator at > 20.3 uM
MDA-MB-231 = assay: Cytotoxicity against human MDA-MB-231 cells overexpressing urokinase plasminogen activator
MCF7 [2] = assay: Cytotoxicity against human MCF7 cells overexpressing urokinase plasminogen activator at > 144 uM

`O=c1[nH]c(=O)n([C@H]2C[C@H](O)[C@@H](CO)O2)cc1F` [FLOXURIDINE] was tested, and the inhibition (MCF7 [1]) was “inactive” and the IC50 (MDA-MB-231) was 210 nM.

With `O=C(O)CCC(=O)O[C@H]1C[C@H](n2cc(F)c(=O)[nH]c2=O)O[C@@H]1CO` the inhibition (MCF7 [2]) was “inactive”.
